The inhibition is the drop in the measured response relative to a control, in per cent. A word on the IC50: it is the concentration needed to halve the response being measured.

For 1 compound, inhibition and IC50 results are on record in publication doi:10.1101/2021.09.30.462449v1 (biorxiv, 2021).

In one assay the target is MLCK (MLCK2) (Homo sapiens, UniProt Q32MK0). As to the kind of experiment: biochemical. Conditions: read-out: % inhibition mean (Lanthascreen).
A further assay concerns the target CAMK1 (CaMK1) (Homo sapiens, UniProt Q14012). As to the kind of experiment: biochemical. The conditions noted are these: read-out: % inhibition mean (Adapta).
For a further assay, the target named is PL^pro (Severe acute respiratory syndrome coronavirus 2, UniProt P0DTD1). Briefly: FRET peptide cleavage assay. The class given is biochemical.
The target in the next assay is PI4KA (PI4K alpha) (Homo sapiens, UniProt P42356). Briefly: biochemical. Conditions: read-out: % inhibition mean (Adapta).
In a further assay the target is SPHK2 (Homo sapiens, UniProt Q9NRA0). As to the kind of experiment: biochemical. The conditions noted are these: read-out: % inhibition mean (Adapta).
The next assay concerns the target LRRK2 G2019S (Homo sapiens, UniProt Q5S007, G2019S). Briefly: biochemical. The conditions noted are these: read-out: % inhibition mean (Adapta).
The next assay concerns the target LRRK2 I2020T (Homo sapiens, UniProt Q5S007, I2020T). As to the kind of experiment: biochemical. The conditions noted are these: read-out: % inhibition mean (Adapta).
The next assay concerns the target LRRK2 G2019S FL (Homo sapiens, UniProt Q5S007, G2019S). Briefly: biochemical. Conditions: read-out: % inhibition mean (Adapta).
A further assay addresses PI4K2B (PI4K2 beta) (Homo sapiens, UniProt Q8TCG2). Briefly: biochemical. Conditions: read-out: % inhibition mean (Adapta).
In a further assay the target is CHUK (IKK alpha) (Homo sapiens, UniProt O15111). Briefly: biochemical. The conditions noted are these: read-out: % inhibition mean (Adapta).
The next assay deals with PI4K2A (PI4K2 alpha) (Homo sapiens, UniProt Q9BTU6). Briefly: biochemical. Conditions: read-out: % inhibition mean (Adapta).
For another assay, the target named is NUAK1 (ARK5) (Homo sapiens, UniProt O60285). Briefly: biochemical. The conditions noted are these: read-out: % inhibition mean (Adapta).
NUAK1 (ARK5), sequence (O60285 whole entry): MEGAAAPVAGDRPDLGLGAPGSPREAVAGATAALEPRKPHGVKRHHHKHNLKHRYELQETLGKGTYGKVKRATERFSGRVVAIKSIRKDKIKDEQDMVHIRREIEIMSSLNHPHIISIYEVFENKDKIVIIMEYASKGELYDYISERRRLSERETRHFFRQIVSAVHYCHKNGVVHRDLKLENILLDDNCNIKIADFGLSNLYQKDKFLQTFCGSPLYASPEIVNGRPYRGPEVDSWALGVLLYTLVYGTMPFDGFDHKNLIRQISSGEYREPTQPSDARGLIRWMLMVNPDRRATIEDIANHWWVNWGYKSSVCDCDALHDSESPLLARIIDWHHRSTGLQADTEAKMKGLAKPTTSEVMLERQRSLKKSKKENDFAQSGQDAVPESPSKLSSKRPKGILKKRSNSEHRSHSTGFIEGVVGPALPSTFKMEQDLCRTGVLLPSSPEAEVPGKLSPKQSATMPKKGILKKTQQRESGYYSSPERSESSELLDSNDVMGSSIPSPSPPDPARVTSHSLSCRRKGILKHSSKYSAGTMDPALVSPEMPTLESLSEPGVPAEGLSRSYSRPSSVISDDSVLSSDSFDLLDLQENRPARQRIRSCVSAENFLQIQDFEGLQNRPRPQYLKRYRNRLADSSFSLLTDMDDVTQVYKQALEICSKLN
In the next assay the target is IRAK1 (Homo sapiens, UniProt P51617). Briefly: biochemical. Conditions: read-out: % inhibition mean (Adapta).
The target in the next assay is PIK3C2A (PI3K-C2 alpha) (Homo sapiens, UniProt O00443). Briefly: biochemical. The conditions noted are these: read-out: % inhibition mean (Adapta).
For assay [1], the target named is PIK3CB/PIK3R1 (p110 beta/p85 alpha) (Homo sapiens, UniProt P42338). Briefly: biochemical. Conditions: read-out: % inhibition mean (Adapta).
A further assay deals with PI4KB (PI4K beta) (Homo sapiens, UniProt Q9UBF8). As to the kind of experiment: biochemical. The conditions noted are these: read-out: % inhibition mean (Adapta).
PI4KB (PI4K beta), sequence (Q9UBF8 whole entry): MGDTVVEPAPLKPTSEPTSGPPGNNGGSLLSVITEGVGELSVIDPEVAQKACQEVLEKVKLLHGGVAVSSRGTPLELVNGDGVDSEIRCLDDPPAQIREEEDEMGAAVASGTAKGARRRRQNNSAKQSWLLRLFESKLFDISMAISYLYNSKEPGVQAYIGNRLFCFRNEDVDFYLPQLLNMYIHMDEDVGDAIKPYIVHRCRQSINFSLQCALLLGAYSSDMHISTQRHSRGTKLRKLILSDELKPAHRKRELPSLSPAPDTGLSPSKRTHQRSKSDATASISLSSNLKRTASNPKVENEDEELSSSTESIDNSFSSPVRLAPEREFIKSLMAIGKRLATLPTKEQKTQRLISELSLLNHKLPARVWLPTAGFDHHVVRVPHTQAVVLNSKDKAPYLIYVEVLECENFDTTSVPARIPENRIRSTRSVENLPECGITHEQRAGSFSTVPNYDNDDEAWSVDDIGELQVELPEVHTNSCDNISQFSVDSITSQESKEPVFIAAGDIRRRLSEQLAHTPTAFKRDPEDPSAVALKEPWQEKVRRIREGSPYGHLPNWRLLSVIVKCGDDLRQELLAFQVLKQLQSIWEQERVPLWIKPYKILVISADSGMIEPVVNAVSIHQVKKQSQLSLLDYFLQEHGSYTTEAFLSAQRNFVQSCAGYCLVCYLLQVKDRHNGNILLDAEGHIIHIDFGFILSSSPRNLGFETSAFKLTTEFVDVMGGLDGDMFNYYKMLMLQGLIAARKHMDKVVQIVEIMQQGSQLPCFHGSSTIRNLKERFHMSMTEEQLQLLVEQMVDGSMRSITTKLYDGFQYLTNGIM
In assay [2] the target is PIK3CA/PIK3R1 (p110 alpha/p85 alpha) (Homo sapiens, UniProt P42336). As to the kind of experiment: biochemical. The conditions noted are these: read-out: % inhibition mean (Adapta).
PIK3CA/PIK3R1 (p110 alpha/p85 alpha), sequence (P42336 whole entry): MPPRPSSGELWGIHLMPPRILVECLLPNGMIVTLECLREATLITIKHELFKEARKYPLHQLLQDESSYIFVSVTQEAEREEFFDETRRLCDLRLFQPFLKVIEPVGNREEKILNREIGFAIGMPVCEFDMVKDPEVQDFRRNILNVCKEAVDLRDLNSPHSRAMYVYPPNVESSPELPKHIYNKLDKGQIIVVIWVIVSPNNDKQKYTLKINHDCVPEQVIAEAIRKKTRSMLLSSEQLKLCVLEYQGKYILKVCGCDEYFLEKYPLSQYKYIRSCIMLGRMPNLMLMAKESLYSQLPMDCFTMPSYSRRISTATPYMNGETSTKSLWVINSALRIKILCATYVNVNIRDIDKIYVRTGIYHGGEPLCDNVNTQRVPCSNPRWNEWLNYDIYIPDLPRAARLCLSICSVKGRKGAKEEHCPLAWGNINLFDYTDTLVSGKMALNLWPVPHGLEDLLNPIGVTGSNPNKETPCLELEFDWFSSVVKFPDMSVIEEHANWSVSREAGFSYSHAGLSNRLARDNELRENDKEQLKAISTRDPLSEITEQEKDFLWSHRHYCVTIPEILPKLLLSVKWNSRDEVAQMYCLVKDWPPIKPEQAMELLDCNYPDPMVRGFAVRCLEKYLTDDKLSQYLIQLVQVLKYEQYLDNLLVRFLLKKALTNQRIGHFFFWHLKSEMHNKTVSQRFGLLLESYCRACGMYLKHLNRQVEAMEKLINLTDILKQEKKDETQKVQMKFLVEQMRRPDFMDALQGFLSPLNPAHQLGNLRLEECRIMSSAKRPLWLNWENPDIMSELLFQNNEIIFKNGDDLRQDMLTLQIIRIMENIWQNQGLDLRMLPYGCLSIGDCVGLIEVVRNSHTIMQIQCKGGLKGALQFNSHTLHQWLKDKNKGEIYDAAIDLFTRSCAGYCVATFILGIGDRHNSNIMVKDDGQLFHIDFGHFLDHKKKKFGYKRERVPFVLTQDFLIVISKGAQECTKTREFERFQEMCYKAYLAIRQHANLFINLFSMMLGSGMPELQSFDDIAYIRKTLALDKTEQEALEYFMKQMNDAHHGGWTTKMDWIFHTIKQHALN
PIK3CA/PIK3R1 (p110 alpha/p85 alpha), sequence (P27986 whole entry partner): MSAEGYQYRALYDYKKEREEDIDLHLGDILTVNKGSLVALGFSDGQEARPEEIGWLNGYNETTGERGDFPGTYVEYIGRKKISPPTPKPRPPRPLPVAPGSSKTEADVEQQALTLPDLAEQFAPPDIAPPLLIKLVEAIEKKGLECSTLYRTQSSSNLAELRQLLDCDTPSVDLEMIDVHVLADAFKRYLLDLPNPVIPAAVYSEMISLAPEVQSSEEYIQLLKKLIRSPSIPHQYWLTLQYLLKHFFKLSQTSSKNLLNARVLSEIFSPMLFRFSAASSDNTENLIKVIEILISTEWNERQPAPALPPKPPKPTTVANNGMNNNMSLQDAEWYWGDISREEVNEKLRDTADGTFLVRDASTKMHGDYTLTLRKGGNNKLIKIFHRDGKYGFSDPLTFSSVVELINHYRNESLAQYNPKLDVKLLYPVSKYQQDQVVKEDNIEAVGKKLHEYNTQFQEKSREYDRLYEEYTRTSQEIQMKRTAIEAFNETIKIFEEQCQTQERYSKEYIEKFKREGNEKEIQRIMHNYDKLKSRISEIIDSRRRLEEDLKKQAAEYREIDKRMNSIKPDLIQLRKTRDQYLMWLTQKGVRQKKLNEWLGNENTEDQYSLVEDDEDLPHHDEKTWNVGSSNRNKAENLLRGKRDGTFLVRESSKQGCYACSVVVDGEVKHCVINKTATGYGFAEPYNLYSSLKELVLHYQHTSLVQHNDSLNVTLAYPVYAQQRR
The target of the next assay is DYRK1B (Homo sapiens, UniProt Q9Y463). As to the kind of experiment: biochemical. The conditions noted are these: read-out: % inhibition mean (Z'Lyte).
DYRK1B, sequence (Q9Y463 whole entry): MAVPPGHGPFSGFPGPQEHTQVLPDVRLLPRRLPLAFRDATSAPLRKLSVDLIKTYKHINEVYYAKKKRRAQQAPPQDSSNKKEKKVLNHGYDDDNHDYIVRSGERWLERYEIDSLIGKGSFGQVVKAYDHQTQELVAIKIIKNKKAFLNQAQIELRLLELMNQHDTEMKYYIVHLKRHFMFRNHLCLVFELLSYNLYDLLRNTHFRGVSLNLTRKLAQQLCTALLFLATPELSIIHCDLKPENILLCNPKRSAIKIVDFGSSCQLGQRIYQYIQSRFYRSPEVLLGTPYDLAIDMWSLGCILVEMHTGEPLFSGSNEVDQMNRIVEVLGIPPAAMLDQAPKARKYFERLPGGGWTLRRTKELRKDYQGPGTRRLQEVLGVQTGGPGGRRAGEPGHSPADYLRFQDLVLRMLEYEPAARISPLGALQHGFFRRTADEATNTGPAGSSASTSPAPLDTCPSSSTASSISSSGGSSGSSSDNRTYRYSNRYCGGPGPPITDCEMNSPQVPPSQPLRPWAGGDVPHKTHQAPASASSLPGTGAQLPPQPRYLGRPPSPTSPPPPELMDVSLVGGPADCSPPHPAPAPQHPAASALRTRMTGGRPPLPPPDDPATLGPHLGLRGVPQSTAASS
The next assay concerns the target LTK (TYK1) (Homo sapiens, UniProt P29376). As to the kind of experiment: biochemical. Conditions: read-out: % inhibition mean (Z'Lyte).

MLCK (MLCK2), sequence (Q32MK0 whole entry): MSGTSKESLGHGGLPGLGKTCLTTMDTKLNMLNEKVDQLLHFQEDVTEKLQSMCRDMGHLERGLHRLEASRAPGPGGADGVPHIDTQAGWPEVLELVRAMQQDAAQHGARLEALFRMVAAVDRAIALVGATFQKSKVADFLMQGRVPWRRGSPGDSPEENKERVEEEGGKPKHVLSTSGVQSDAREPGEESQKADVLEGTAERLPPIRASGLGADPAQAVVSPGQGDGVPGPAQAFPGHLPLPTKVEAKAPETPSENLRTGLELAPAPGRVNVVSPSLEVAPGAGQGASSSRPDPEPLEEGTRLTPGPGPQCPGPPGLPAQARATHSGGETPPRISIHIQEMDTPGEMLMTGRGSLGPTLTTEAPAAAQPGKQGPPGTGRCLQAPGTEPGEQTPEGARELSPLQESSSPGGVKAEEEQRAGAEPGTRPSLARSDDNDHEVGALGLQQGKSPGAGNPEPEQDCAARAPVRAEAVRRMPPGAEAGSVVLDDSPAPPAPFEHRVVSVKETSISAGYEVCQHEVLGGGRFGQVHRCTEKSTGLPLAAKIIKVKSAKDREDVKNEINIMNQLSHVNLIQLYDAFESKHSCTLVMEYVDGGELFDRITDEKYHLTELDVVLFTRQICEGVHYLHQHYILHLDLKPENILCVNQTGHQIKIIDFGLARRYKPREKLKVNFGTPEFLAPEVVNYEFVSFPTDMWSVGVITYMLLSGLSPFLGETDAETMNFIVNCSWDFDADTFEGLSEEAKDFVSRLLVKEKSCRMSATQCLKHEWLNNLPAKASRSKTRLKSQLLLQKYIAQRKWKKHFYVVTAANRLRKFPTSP

`COc1ccc2nc3cc(Cl)ccc3c(Nc3cc(CN4CCCC4)c(O)c(CN4CCCC4)c3)c2n1` [Pyronaridine, 4-[(7-Chloro-2-methoxybenzo[b][1,5]naphthyridin-10-yl)amino]-2,6-bis(1-pyrrolidinylmethyl)phenol phosphate (1:4)]: the inhibition at 1 µM on MLCK (MLCK2) is -6%; at CAMK1 (CaMK1), 35%; on PI4KA (PI4K alpha), 0%; on SPHK2 it was -5%; at LRRK2 G2019S it was 4%; on LRRK2 I2020T, -15%. For the same compound, the inhibition at 1 µM at LRRK2 G2019S FL was -10%; at PI4K2B (PI4K2 beta), 2%; on CHUK (IKK alpha) it was 0%; on PI4K2A (PI4K2 alpha) it was 4%; on NUAK1 (ARK5), 11%; on IRAK1 it was -4%. In addition, the inhibition at 1 µM on PIK3C2A (PI3K-C2 alpha) was -1%; in assay [1], -11%; on PI4KB (PI4K beta), 5%; in [2], 7%; on DYRK1B, 1%; at LTK (TYK1), -1%. In addition, at PL^pro, the IC50 is 1860 ± 580 nM.
